{"source": "the SangsterLogP compilation", "assay": "method code SF, from DOI: 10.1021/jm201475u, PMID: 22339047", "settings": "for logD: pH 7.4"}
{"smiles": "O=c1cc[nH]c(C(O)C(F)(F)F)c1O", "note": "(configuration not stated)", "values": [{"measurement": "logP", "result": 0.14}]}
{"smiles": "Cc1[nH]cc(F)c(=O)c1O", "values": [{"measurement": "logP", "result": 0}]}
{"smiles": "CCCn1cc(O)c(=O)c(F)c1", "values": [{"measurement": "logP", "result": -0.46}]}
{"smiles": "O=c1cc(F)[nH]c(F)c1O", "values": [{"measurement": "logP", "result": 1.35}]}
{"smiles": "Cn1cc(O)c(=O)c(F)c1", "values": [{"measurement": "logP", "result": -1.32}]}
{"smiles": "CCCCn1ccc(=O)c(O)c1F", "values": [{"measurement": "logP", "result": 0.38}]}
{"smiles": "Cc1[nH]c(F)c(O)c(=O)c1C", "values": [{"measurement": "logD", "result": 1.07}]}
{"smiles": "Cc1cc(=O)c(O)c(F)[nH]1", "values": [{"measurement": "logD", "result": 0.25}]}
{"smiles": "CC(C)n1ccc(=O)c(O)c1F", "values": [{"measurement": "logP", "result": -0.41}]}
{"smiles": "CCc1c(O)c(=O)ccn1CC", "values": [{"measurement": "logD", "result": 0.23}]}
{"smiles": "Cc1cn(C)c(F)c(O)c1=O", "values": [{"measurement": "logP", "result": -0.65}]}
{"smiles": "CCn1cc(O)c(=O)c(F)c1", "values": [{"measurement": "logP", "result": -0.89}]}
{"smiles": "Cc1c(O)c(=O)c(F)cn1C", "values": [{"measurement": "logP", "result": -0.8}]}
{"smiles": "O=c1c(O)c(F)[nH]c(F)c1F", "values": [{"measurement": "logP", "result": 1.7}]}
{"smiles": "CCCn1ccc(=O)c(O)c1F", "values": [{"measurement": "logP", "result": -0.08}]}
{"smiles": "Cc1c[nH]c(F)c(O)c1=O", "values": [{"measurement": "logD", "result": 0.5}]}
{"smiles": "O=c1cc[nH]c(C(F)(F)F)c1O", "values": [{"measurement": "logP", "result": 0.87}]}
{"smiles": "Cn1ccc(=O)c(O)c1C(F)(F)F", "values": [{"measurement": "logP", "result": -0.45}]}
{"smiles": "CC(C)n1cc(O)c(=O)c(F)c1", "values": [{"measurement": "logP", "result": -0.92}]}
{"smiles": "Cn1ccc(=O)c(O)c1F", "values": [{"measurement": "logP", "result": -0.97}]}
{"smiles": "CCn1ccc(=O)c(O)c1F", "values": [{"measurement": "logP", "result": -0.58}]}
{"smiles": "O=c1cc[nH]c(F)c1O", "values": [{"measurement": "logD", "result": -0.21}]}
